These results are taken from patent US20210369710A1, “MODULATORS OF MYC FAMILY PROTO-ONCOGENE PROTEIN” (Nalo Therapeutics, priority 2019, published 2021).

The target in one assay is T1, MycC Protein (Homo sapiens, UniProt P01106).
T1 construct: endogenous in cells; host or cells: HL-60 or SKNBE2
As to the kind of experiment: Degradation of MycC protein, Western blot band density in cells. The assay is classed as cell-based. As to conditions: HL-60 or SKNBE2 cells; 6 uL of compound (1 mM) added to 3 mL cells; 6 hours; Western blot band density (ImageJ). The method, boiled down: (§1)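 HL-60 leukemia or SKNBE2 neuroblastoma cells (3×10^6 per well, passages below 40) were exposed for 6 h to compound added from a 1 mM stock. RIPA lysates (25-30 ug protein) were run on SDS-PAGE and immunoblotted for c-Myc or MycN. Band density was quantified from the western images.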
For orientation: A western blot detects proteins with antibodies after separation by electrophoresis.

The next assay addresses T2, MycN Protein (Homo sapiens, UniProt P04198).
T2 construct: endogenous in cells; host or cells: HL-60 or SKNBE2
T2 sequence (P04198 1-464): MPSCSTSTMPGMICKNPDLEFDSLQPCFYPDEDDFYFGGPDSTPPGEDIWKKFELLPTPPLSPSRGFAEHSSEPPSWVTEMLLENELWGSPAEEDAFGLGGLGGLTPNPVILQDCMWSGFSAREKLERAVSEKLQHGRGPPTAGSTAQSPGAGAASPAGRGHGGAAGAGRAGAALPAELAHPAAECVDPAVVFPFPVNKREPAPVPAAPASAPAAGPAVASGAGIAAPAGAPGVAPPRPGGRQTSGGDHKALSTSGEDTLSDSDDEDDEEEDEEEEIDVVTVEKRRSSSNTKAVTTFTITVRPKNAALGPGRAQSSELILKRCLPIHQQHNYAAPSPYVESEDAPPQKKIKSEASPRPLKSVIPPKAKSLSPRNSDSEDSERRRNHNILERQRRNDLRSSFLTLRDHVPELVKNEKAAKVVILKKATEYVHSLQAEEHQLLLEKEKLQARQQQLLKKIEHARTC
The experiment in a line: Degradation of MycN protein, Western blot band density in cells. The assay is classed as cell-based. The following applies: HL-60 or SKNBE2 cells; 6 uL of compound (1 mM) added to 3 mL cells; 6 hours; Western blot band density (ImageJ). The method, boiled down:
as §1

Bounds are passed on as bounds.

T1 sequence (P01106 whole entry): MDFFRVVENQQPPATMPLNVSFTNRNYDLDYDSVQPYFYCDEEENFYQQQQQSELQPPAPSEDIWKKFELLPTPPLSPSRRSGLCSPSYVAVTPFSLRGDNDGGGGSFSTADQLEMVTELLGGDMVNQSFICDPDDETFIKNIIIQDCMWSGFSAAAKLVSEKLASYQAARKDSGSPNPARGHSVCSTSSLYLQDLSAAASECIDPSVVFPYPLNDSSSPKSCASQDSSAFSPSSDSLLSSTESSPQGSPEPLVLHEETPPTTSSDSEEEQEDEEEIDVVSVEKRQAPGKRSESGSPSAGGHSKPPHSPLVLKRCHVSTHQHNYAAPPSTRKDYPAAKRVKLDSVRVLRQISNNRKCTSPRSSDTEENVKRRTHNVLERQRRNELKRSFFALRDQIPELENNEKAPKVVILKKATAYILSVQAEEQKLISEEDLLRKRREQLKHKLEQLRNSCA

For the compound `CN(c1nccc(Nc2cc(C3CC4(CC4)C3)[nH]n2)n1)[C@H]1CC[C@H](NC(=O)NC2Cc3ccc(C#N)cc3C2)CC1` (stereo partly drawn) [Compound 148, 1-(5-cyano-2,3-dihydro-1H-inden-2-yl)-3-((1R,4R)-4-(methyl(4-((5-(spiro[2.3]hexan-5-yl)-1H-pyrazol-3-yl)amino)pyrimidin-2-yl)amino)cyclohexyl)urea], the Dmax (as a rule, the greatest extent of degradation seen) at 2 µM on MycC Protein was in the range of 50 to 79%; on MycN Protein, 80 to 100%.
On to `CN(c1nccc(Nc2cc(C3CCC(F)(F)C3)[nH]n2)n1)[C@H]1CC[C@H](NC(=O)NC2Cc3ccc(C#N)cc3C2)CC1` (stereo partly drawn) [Compound 149, 1-(5-cyano-2,3-dihydro-1H-inden-2-yl)-3-((1R,4R)-4-((4-((5-(3,3-difluorocyclopentyl)-1H-pyrazol-3-yl)amino)pyrimidin-2-yl)(methyl)amino)cyclohexyl)urea], for which the Dmax at 2 µM at MycC Protein is less than 20%; on MycN Protein, 50 to 79%.
`CN(c1nccc(Nc2cc(C3CC3)[nH]n2)n1)[C@H]1CC[C@H](NC(=O)NC2Cc3ccccc3C2)CC1` [Compound 150, 1-((1R,4R)-4-((4-((5-cyclopropyl-1H-pyrazol-3-yl)amino)pyrimidin-2-yl)(methyl)amino)cyclohexyl)-3-(2,3-dihydro-1H-inden-2-yl)urea]: the Dmax at 2 µM at MycC Protein and on MycN Protein was 80 to 100% each time.
As to `COCCN(c1nccc(Nc2cc(C3CC3)[nH]n2)n1)C1CCC(NC(=O)NC2Cc3ccc(C#N)cc3C2)CC1` [Compound 152, 1-(5-cyano-2,3-dihydro-1H-inden-2-yl)-3-((1R,4R)-4-((4-((5-cyclopropyl-1H-pyrazol-3-yl)amino)pyrimidin-2-yl)(2-methoxyethyl)amino)cyclohexyl)urea], the “% Degradation of MycC” value on MycC Protein is given as “**** (****: degradation 80-100%)”. For the same compound, the “% Degradation of MycN” value at MycN Protein is reported as “**** (****: degradation 80-100%)”.
Regarding `CN(C(=O)N[C@H]1CC[C@H](N(C)c2nccc(Nc3cc(C4CCCC4)[nH]n3)n2)CC1)C1Cc2ccc(C#N)cc2C1` (stereo partly drawn) [Compound 153, 1-(5-cyano-2,3-dihydro-1H-inden-2-yl)-3-((1R,4R)-4-((4-((5-cyclopentyl-1H-pyrazol-3-yl)amino)pyrimidin-2-yl)(methyl)amino)cyclohexyl)-1-methylurea], the Dmax at 2 µM on MycC Protein lay within 50 to 79%; at MycN Protein it was 20 to 49%.
